Where a name gives a salt, the structure may show the parent alone. Read-outs that look alike come from different tables or passages of the source.
How the values were obtained:
Type in all cases: cell-based, human
[1] = tested on: LoVo (Colorectal Adenocarcinoma); assay: Cell viability analysis, colon cancer LoVo; conditions: Homo sapiens, LoVo, 72 h, read-out: cell viability (survival rate), LoVo, drug 10 μM, 72 hours, WST-1, OD450 nm
[2] = tested on: A375 (Amelanotic Melanoma); assay: Cell viability analysis, skin cancer A375; conditions: Homo sapiens, A-375, 72 h
[3] = tested on: HepG2 (Hepatocellular Carcinoma); assay: Cell viability analysis, hepatic cancer HepG2; conditions: Homo sapiens, HepG2, 72 h
[4] = tested on: MCF7 (Mammary Gland, Adenocarcinoma); assay: Cell viability analysis, breast cancer MCF7; conditions: Homo sapiens, MCF7, 72 h
[5] = tested on: HL-60 (Acute Promyelocytic Leukemia); assay: Cell viability analysis, leukemia HL-60; conditions: Homo sapiens, HL-60, 72 h
[6] = tested on: MKN-45 (Gastric Adenocarcinoma); assay: Cell viability analysis, gastric cancer MKN-45; conditions: Homo sapiens, MKN-45, 72 h
[7] = tested on: PC3 (p53−) (Prostate Adenocarcinoma); assay: Cell viability analysis, prostate cancer PC3; conditions: Homo sapiens, 72 h
cancer cell lines = assay: Cell viability analysis (WST-1) on cancer cell lines; conditions: drug 10 μM, 72 hours, WST-1; Table 3
[8] = tested on: A549 (Lung Adenocarcinoma); assay: Cell viability analysis, lung cancer A549; conditions: Homo sapiens, A549, 72 h
[9] = tested on: AGS (Gastric Adenocarcinoma); assay: Cell viability analysis, gastric cancer AGS; conditions: Homo sapiens, 72 h
[10] = tested on: HI650 (Lung Adenocarcinoma); assay: Cell viability analysis, lung cancer HI650; conditions: Homo sapiens, NCI-H1650, 72 h
[11] = tested on: TSGH-8301 (Urinary Bladder Carcinoma); assay: Cell viability analysis, bladder cancer TSGH-8301; conditions: Homo sapiens, 72 h
[12] = tested on: HeLa (Cervix Adenocarcinoma); assay: Cell viability analysis, cervical cancer HeLa; conditions: Homo sapiens, HeLa, 72 h
[13] = drug 10 μM, 72 hours, WST-1, OD450 nm, read-out: cell viability (survival rate), A375
[14] = drug 10 μM, 72 hours, WST-1, OD450 nm, read-out: cell viability (survival rate), HepG2
[15] = drug 10 μM, 72 hours, WST-1, OD450 nm, read-out: cell viability (survival rate), MCF7
[16] = drug 10 μM, 72 hours, WST-1, OD450 nm, read-out: cell viability (survival rate), HL-60
[17] = drug 10 μM, 72 hours, WST-1, OD450 nm, read-out: cell viability (survival rate), MKN-45
[18] = drug 10 μM, 72 hours, WST-1, OD450 nm, read-out: cell viability (survival rate), PC3
[19] = drug 10 μM, 72 hours, WST-1, OD450 nm, read-out: cell viability (survival rate), A549
[20] = drug 10 μM, 72 hours, WST-1, OD450 nm, read-out: cell viability (survival rate), AGS
[21] = drug 10 μM, 72 hours, WST-1, OD450 nm, read-out: cell viability (survival rate), H1650
[22] = drug 10 μM, 72 hours, WST-1, OD450 nm, read-out: cell viability (survival rate), TSGH
[23] = drug 10 μM, 72 hours, WST-1, OD450 nm, read-out: cell viability (survival rate), HeLa
[24] = read-out: cell viability (survival rate), A375, drug 10 μM, 72 hours, WST-1, OD450 nm
[25] = read-out: cell viability (survival rate), HepG2, drug 10 μM, 72 hours, WST-1, OD450 nm
[26] = read-out: cell viability (survival rate), MCF7, drug 10 μM, 72 hours, WST-1, OD450 nm
[27] = read-out: cell viability (survival rate), HL-60, drug 10 μM, 72 hours, WST-1, OD450 nm
[28] = read-out: cell viability (survival rate), MKN-45, drug 10 μM, 72 hours, WST-1, OD450 nm
[29] = read-out: cell viability (survival rate), PC3, drug 10 μM, 72 hours, WST-1, OD450 nm
[30] = read-out: cell viability (survival rate), A549, drug 10 μM, 72 hours, WST-1, OD450 nm
[31] = read-out: cell viability (survival rate), AGS, drug 10 μM, 72 hours, WST-1, OD450 nm
[32] = read-out: cell viability (survival rate), H1650, drug 10 μM, 72 hours, WST-1, OD450 nm
[33] = read-out: cell viability (survival rate), TSGH, drug 10 μM, 72 hours, WST-1, OD450 nm
[34] = read-out: cell viability (survival rate), HeLa, drug 10 μM, 72 hours, WST-1, OD450 nm

Row | Structure (SMILES) | viability at 10 µM [1] | inhibition effect on different cancer cell lines (cancer cell lines) | viability at 10 µM [2, 24] | viability at 10 µM [3, 25] | viability at 10 µM [4, 26] | viability at 10 µM [5, 27] | viability at 10 µM [6, 28] | viability at 10 µM [7, 29] | viability at 10 µM [8, 30] | viability at 10 µM [9, 31] | viability at 10 µM [10, 32] | viability at 10 µM [11, 33] | viability at 10 µM [12, 34] | other results
1 | CO/N=C(\C(=O)N[C@@H]1C(=O)N2C(C(=O)OCOC(=O)C(C)(C)C)=C(/C=C\c3scnc3C)CS[C@H]12)c1csc(N)n1 [Cefditoren pivoxil] | 83.5% | significant inhibition effect |  |  |  |  |  |  |  |  |  |  |  | viability at 10 µM [2, 13]: 69.1%; viability at 10 µM [3, 14]: 96.9%; viability at 10 µM [4, 15]: 38.4%; viability at 10 µM [5, 16]: 110%; viability at 10 µM [6, 17]: 70.5%; viability at 10 µM [7, 18]: 83.9%; viability at 10 µM [8, 19]: 45.7%; viability at 10 µM [9, 20]: 86.5%; viability at 10 µM [10, 21]: 80.7%; viability at 10 µM [11, 22]: 94.8%; viability at 10 µM [12, 23]: 58.7%
2 | Nc1ccc(S(=O)(=O)Nc2ccccn2)cc1 [Sulfapyridine (Dagenan), Sulfapyridine] | 84.6% | significant inhibition effect | 77.2% | 98.9% | 54.7% | 111% | 53.8% | 108% | 64.5% | 71.9% | 69.5% | 64.6% | 71.2% | 
3 | COc1ccc(O)cc1 [Mequinol] | 85.2% | significant inhibition effect | 63.8% | 95.6% | 74.4% | 112% | 103% | 68% | 118% | 57.2% | 67.5% | 97% | 87.1% | 
4 | CC1(C)S[C@@H]2[C@H](NC(=O)[C@H](NC(=O)N3CCN(S(C)(=O)=O)C3=O)c3ccccc3)C(=O)N2[C@H]1C(=O)O [Mezlocillin Sodium] | 116% | significant inhibition effect | 107% | 95.1% | 107% | 91.4% | 92.9% | 97.8% | 78% | 72.2% | 81% | 91.9% | 111% | 
5 | CN1CCC(=C2c3ccccc3CCc3cccnc32)CC1 [Azatadine dimaleate] | 95.7% | significant inhibition effect |  |  |  |  |  |  |  |  |  |  |  | viability at 10 µM [2, 13]: 40.7%; viability at 10 µM [3, 14]: 84.5%; viability at 10 µM [4, 15]: 79.7%; viability at 10 µM [5, 16]: 113%; viability at 10 µM [6, 17]: 83.4%; viability at 10 µM [7, 18]: 104%; viability at 10 µM [8, 19]: 123%; viability at 10 µM [9, 20]: 67.1%; viability at 10 µM [10, 21]: 48.5%; viability at 10 µM [11, 22]: 78.5%; viability at 10 µM [12, 23]: 72.2%
6 | Cc1cccc(C(C)c2cnc[nH]2)c1C (stereo not drawn) [Medetomidine HCl] | 79.4% | significant inhibition effect | 59.7% | 91.9% | 72.3% | 84.5% | 37.4% | 65.6% | 73.7% | 108% | 49.8% | 104% | 78.4% | 
7 | CCS(=O)(=O)CCn1c([N+](=O)[O-])cnc1C [tinidazole] | 78.5% | significant inhibition effect | 60.6% | 95.5% | 88% | 89% | 100% | 85.6% | 79.5% | 104% | 91.1% | 112% | 97.8% | 
8 | NCC[C@H](O)C(=O)N[C@@H]1C[C@H](N)[C@@H](O[C@H]2O[C@H](CN)[C@@H](O)[C@H](O)[C@H]2O)[C@H](O)[C@H]1O[C@H]1O[C@H](CO)[C@@H](O)[C@H](N)[C@H]1O [Amikacin hydrate] | 99% | significant inhibition effect |  |  |  |  |  |  |  |  |  |  |  | viability at 10 µM [2, 13]: 87.7%; viability at 10 µM [3, 14]: 88.4%; viability at 10 µM [4, 15]: 81.4%; viability at 10 µM [5, 16]: 108%; viability at 10 µM [6, 17]: 104%; viability at 10 µM [7, 18]: 102%; viability at 10 µM [8, 19]: 111%; viability at 10 µM [9, 20]: 85.8%; viability at 10 µM [10, 21]: 87.7%; viability at 10 µM [11, 22]: 138%; viability at 10 µM [12, 23]: 96.3%
9 | O=C(O)CCNC(=O)c1ccccc1 [Betamipron] | 93.5% | significant inhibition effect | 85.8% | 90.9% | 118% | 96.2% | 88.2% | 92.6% | 72.3% | 75.2% | 72.8% | 85.4% | 75.9% | 
10 | C[N+]1(C)[C@@H]2C[C@@H](OC(=O)C(O)(c3cccs3)c3cccs3)C[C@H]1[C@@H]1O[C@@H]12 [Tiotropium Bromide hydrate] | 88.7% | significant inhibition effect | 86.3% | 90.9% | 80% | 87.8% | 86.1% | 83.8% | 62% | 73.1% | 40.9% | 54.7% | 124% | 
11 | CN(C/C=C/c1ccccc1)Cc1cccc2ccccc12 [Naftifine HCl] | 86.3% | significant inhibition effect | 63.3% | 91.2% | 84.5% | 93.2% | 58.5% | 109% | 127% | 104% | 72.3% | 79.6% | 80.6% | 
12 | COC(=O)Nc1nc2ccc(Sc3ccccc3)cc2[nH]1 [Fenbendazole (Panacur), Fenbendazole] | 52.9% | significant inhibition effect | 40.6% | 76.1% | 55.8% | 66.6% | 40.3% | 42% | 40.9% | 29.9% | 60.2% | 27.2% | 38.6% | 

Reference: patent US10105357B2, “Indication of antibiotic drugs for preparation of cancer inhibition pharmaceutical composition” (LAUNX BIOMEDICAL CO., LTD., priority 2014, dated 2018)
